Experimental data published in patent publication US10517889B2, “Modulators of SMAD7 expression” (Ionis Pharmaceuticals, Inc., priority 2017, dated 2019).
Strand notation (5' to 3'): a small letter for the sugar, then the base; units joined by * are phosphorothioate-linked, units joined directly phosphodiester-linked; [ ] holds rarer units or linkages, { } end groups; capitals alone tell only the bases. k = constrained ethyl (cEt); [5mC] = 5-methylcytosine; d = 2'-deoxy (DNA)

test system: human SMAD7 mRNA; assay: Antisense inhibition of human SMAD7 mRNA expression in Hep3B cells by 3-10-3 cEt gapmers, 10,000 nM, electroporation (Example 2); assay type: cell-based; conditions: Hep3B cells, 10,000 nM antisense oligonucleotide, electroporation, approximately 24 hours, RT-PCR primer probe set RTS5062, relative to untreated control cells
Experimental: Antisense oligonucleotides were designed to target human SMAD7 mRNA and were tested for their effects on SMAD7 mRNA expression in vitro. The antisense oligonucleotides were tested in a series of experiments that had similar culture conditions, as described below. ION 771576, described in the studies above and which is a 5-10-5 MOE gapmer, was also included in these assays. Cultured Hep3B cells at a density of 20,000 cells per well were transfected using electroporation with 10,000 nM antisense oligonucleotide. After a treatment period of approximately 24 hours, RNA was isolated from the cells and SMAD7 mRNA levels were measured by quantitative real-time PCR. Primer probe set RTS5062 was used to measure human SMAD7 mRNA levels. SMAD7 mRNA levels were adjusted according to total RNA content, as measured by RIBOGREEN®. Results are presented as percent inhibition of SMAD7 mRNA expression, relative to untreated control cells.
The newly designed chimeric antisense oligonucleotides in the Tables below were designed as 3-10-3 cEt gapmers. The gapmers are 16 nucleosides in length, wherein the central gap segment comprises often 2′-deoxynucleosides and is flanked by wing segments on the 5′ direction and the 3′ direction comprising three nucleosides each. Each nucleoside in the 5′ wing segment and each nucleoside in the 3′ wing segment has a cEt sugar modification. The internucleoside linkages throughout each gapmer are phosphorothioate (P═S) linkages. All cytosine residues throughout each gapmer are 5-methylcytosines.
“Start site” indicates the 5′-most nucleoside to which the gapmer is targeted in the human gene sequence. “Stop site” indicates the 3′-most nucleoside to which the gapmer is targeted human gene sequence. […] Some of the oligonucleotides presented were complementary to SMAD7 mRNA sequences RefSeqNo. NM_001190821.1 (designated herein as SEQ ID NO: 3) or RefSeqNo. NM_001190822.1 (designated herein as SEQ ID NO: 4), and are presented in a separate table shown below.

Going from “772597 (k[5mC]*kA*kG*dT*dA*dT*dG*d[5mC]*d[5mC]*dA*d[5mC]*d[5mC]*dA*k[5mC]*kG*k[5mC]; antisense) [compound 772597]” to “772613 (kA*kT*kT*dG*dA*dG*d[5mC]*dT*dG*dT*d[5mC]*d[5mC]*dG*kA*kG*kG; antisense) [compound 772613]”, the “% Inhibition” value rises from 0% to 7%.

Compared with “772621 (kA*kA*k[5mC]*dT*dG*d[5mC]*dT*dG*d[5mC]*dG*dG*dT*dT*kG*kT*kA; antisense) [compound 772621]”, “772628 (kG*k[5mC]*k[5mC]*dT*dT*dG*dA*dT*dG*dG*dA*dG*dA*kA*kA*k[5mC]; antisense) [compound 772628]” is lower in “% Inhibition” value: 38% for the first, 33% for the second.

“772633 (kG*kG*kT*d[5mC]*dA*dT*dT*dG*dG*dG*d[5mC]*d[5mC]*dG*k[5mC]*kT*kG; antisense) [compound 772633]” was tested, and the “% Inhibition” value was 37%.

same assay, conditions: Hep3B cells, electroporation with 10,000 nM antisense oligonucleotide, approximately 24 hours, SMAD7 mRNA by RT-PCR (RTS5062), relative to untreated control cells

First: 772536 (antisense kG*kA*k[5mC]*d[5mC]*dT*d[5mC]*d[5mC]*dG*d[5mC]*dA*d[5mC]*dA*d[5mC]*k[5mC]*kA*kT) [compound 772536]
Second: 772556 (antisense kA*kG*k[5mC]*dA*dG*dG*dA*dG*dG*d[5mC]*dA*d[5mC]*dG*k[5mC]*kG*kG) [compound 772556]
The “% Inhibition” value of the first is lower: 22% for the first, 43% for the second.

Going from “772557 (antisense kG*kT*k[5mC]*d[5mC]*dA*dG*dG*d[5mC]*dG*dG*d[5mC]*d[5mC]*dG*kG*kG*k[5mC]) [compound 772557]” to “772563 (antisense kG*kG*k[5mC]*d[5mC]*dA*d[5mC]*d[5mC]*dT*dG*dA*dA*d[5mC]*dA*k[5mC]*kT*kT) [compound 772563]”, the “% Inhibition” value falls from 2% to 0%.

Compared with “772565 (antisense kA*kA*kT*dG*d[5mC]*d[5mC]*dT*dG*dA*dG*dA*dT*d[5mC]*k[5mC]*kG*kG) [compound 772565]”, “772572 (antisense kA*kT*k[5mC]*dT*dT*d[5mC]*d[5mC]*d[5mC]*dG*dT*dA*dA*dG*kA*kT*kT) [compound 772572]” is lower in “% Inhibition” value: 64% for the first, 0% for the second.

Compared with “772573 (antisense kA*kG*k[5mC]*dA*d[5mC]*dA*d[5mC]*d[5mC]*dA*dG*d[5mC]*dT*d[5mC]*kG*kG*kG) [compound 772573]”, “772587 (kA*kT*k[5mC]*d[5mC]*d[5mC]*d[5mC]*dA*dG*dG*d[5mC]*dT*d[5mC]*d[5mC]*kA*kG*kA; antisense) [compound 772587]” is lower in “% Inhibition” value: 57% for the first, 39% for the second.

Going from “772590 (kT*kG*kT*dG*dA*d[5mC]*d[5mC]*dG*dA*dT*d[5mC]*d[5mC]*d[5mC]*k[5mC]*kA*kG; antisense) [compound 772590]” to “772606 (kA*kG*k[5mC]*d[5mC]*dA*dT*dT*d[5mC]*d[5mC]*d[5mC]*d[5mC]*dT*dG*kA*kG*kG; antisense) [compound 772606]”, the “% Inhibition” value rises from 37% to 41%.

Going from “772610 (kG*kG*k[5mC]*dA*dA*dA*dA*dG*d[5mC]*d[5mC]*dA*dT*dT*k[5mC]*k[5mC]*k[5mC]; antisense) [compound 772610]” to “772642 (kT*kA*k[5mC]*d[5mC]*dG*dG*d[5mC]*dT*dG*dT*dT*dG*dA*kA*kG*kA; antisense) [compound 772642]”, the “% Inhibition” value falls from 34% to 0%.

same assay, conditions: Hep3B cells, electroporation with 10,000 nM antisense oligonucleotide, approximately 24 hours, primer probe set RTS5062, relative to untreated control cells

First: 772532 (antisense k[5mC]*kA*kG*d[5mC]*dA*dG*dG*d[5mC]*dG*d[5mC]*dA*dG*dG*k[5mC]*kG*kA) [compound 772532]
Second: 772533 (antisense kT*kG*kA*dA*dG*dA*dA*dG*dT*d[5mC]*dG*dG*dG*k[5mC]*kG*k[5mC]) [compound 772533]
The “% inhibition of SMAD7 mRNA expression” value of the first is lower: 21% for the first, 31% for the second.

First: 772543 (antisense kG*kG*kA*d[5mC]*dG*dA*dG*d[5mC]*dG*d[5mC]*dA*dG*dA*kT*k[5mC]*kG) [compound 772543]
Second: 772555 (antisense kA*kG*kG*d[5mC]*dA*d[5mC]*dG*d[5mC]*dG*dG*dT*dG*d[5mC]*kG*k[5mC]*kG) [compound 772555]
The “% inhibition of SMAD7 mRNA expression” value of the first is higher: 58% for the first, 23% for the second.

Compared with “772559 (antisense kA*kG*k[5mC]*dG*dA*dG*dT*dA*dG*dG*dA*d[5mC]*dG*kA*kG*kG) [compound 772559]”, “772689 (kG*kT*kT*d[5mC]*dA*dT*dT*dT*dA*dA*dA*d[5mC]*d[5mC]*kT*kT*kT; antisense) [compound 772689]” is higher in “% inhibition of SMAD7 mRNA expression” value: 14% for the first, 26% for the second.

“772696 (kT*k[5mC]*kT*d[5mC]*dT*d[5mC]*dA*dA*dA*dG*d[5mC]*dA*d[5mC]*kT*kA*k[5mC]; antisense) [compound 772696]” was tested, and the “% inhibition of SMAD7 mRNA expression” value was 56%.

Going from “772692 (kA*kA*kA*dG*d[5mC]*dA*d[5mC]*dT*dA*d[5mC]*dA*dA*dT*kG*k[5mC]*kT; antisense) [compound 772692]” to “772700 (k[5mC]*kT*kT*dT*dA*dA*dT*dA*dA*dA*dT*d[5mC]*dT*k[5mC]*kA*kG; antisense) [compound 772700]”, the “% Inhibition” value rises from 19% to 24%.

same assay, conditions: SMAD7 mRNA, Hep3B cells, 10,000 nM antisense oligonucleotide, electroporation, approximately 24 hours, primer probe set RTS5062, relative to untreated control cells

Going from “772535 (antisense k[5mC]*k[5mC]*kG*d[5mC]*dA*d[5mC]*dA*d[5mC]*d[5mC]*dA*dT*dG*dA*kA*kG*kA) [compound 772535]” to “772540 (antisense kA*kG*kG*d[5mC]*dG*dA*dG*dG*dA*dG*dA*dA*dA*kA*kG*kT) [compound 772540]”, the “% Inhibition” value falls from 29% to 10%.

Going from “772551 (antisense kT*kT*k[5mC]*dA*dG*dA*dT*d[5mC]*d[5mC]*dG*d[5mC]*d[5mC]*dT*k[5mC]*kG*kG) [compound 772551]” to “772552 (antisense kG*k[5mC]*kG*d[5mC]*d[5mC]*dT*dT*d[5mC]*dA*dG*dA*dT*d[5mC]*k[5mC]*kG*k[5mC]) [compound 772552]”, the “% Inhibition” value falls from 39% to 34%.

Compared with “772567 (antisense kG*kA*k[5mC]*dT*dT*d[5mC]*d[5mC]*dG*dA*dG*dG*dA*dA*kT*kG*k[5mC]) [compound 772567]”, “772571 (antisense k[5mC]*k[5mC]*kG*dT*dA*dA*dG*dA*dT*dT*d[5mC]*dA*d[5mC]*kA*kG*k[5mC]) [compound 772571]” is lower in “% Inhibition” value: 58% for the first, 50% for the second.

Going from “772582 (k[5mC]*kT*kG*dA*dA*dA*dG*d[5mC]*d[5mC]*d[5mC]*d[5mC]*d[5mC]*d[5mC]*kA*kG*kG; antisense) [compound 772582]” to “772584 (kG*kA*kA*dG*dT*dT*dG*dG*dG*dA*dA*dT*d[5mC]*kT*kG*kA; antisense) [compound 772584]”, the “% Inhibition” value falls from 34% to 4%.

Going from “772589 (kA*k[5mC]*k[5mC]*dG*dA*dT*d[5mC]*d[5mC]*d[5mC]*d[5mC]*dA*dG*dG*k[5mC]*kT*k[5mC]; antisense) [compound 772589]” to “772591 (kA*kG*kT*dG*dT*dG*dA*d[5mC]*d[5mC]*dG*dA*dT*d[5mC]*k[5mC]*k[5mC]*k[5mC]; antisense) [compound 772591]”, the “% Inhibition” value rises from 9% to 60%.

Going from “772592 (k[5mC]*kA*k[5mC]*d[5mC]*dA*dG*dT*dG*dT*dG*dA*d[5mC]*d[5mC]*kG*kA*kT; antisense) [compound 772592]” to “772593 (kA*k[5mC]*kG*d[5mC]*dA*d[5mC]*d[5mC]*dA*dG*dT*dG*dT*dG*kA*k[5mC]*k[5mC]; antisense) [compound 772593]”, the “% Inhibition” value rises from 24% to 42%.

Going from “772595 (kA*k[5mC]*k[5mC]*dA*d[5mC]*dG*d[5mC]*dA*d[5mC]*d[5mC]*dA*dG*dT*kG*kT*kG; antisense) [compound 772595]” to “772604 (kA*kT*kT*d[5mC]*d[5mC]*d[5mC]*d[5mC]*dT*dG*dA*dG*dG*dT*kA*kG*kA; antisense) [compound 772604]”, the “% Inhibition” value rises from 2% to 48%.

Compared with “772611 (kT*k[5mC]*k[5mC]*dG*dA*dG*dG*d[5mC]*dA*dA*dA*dA*dG*k[5mC]*k[5mC]*kA; antisense) [compound 772611]”, “772614 (kG*kA*k[5mC]*dT*d[5mC]*dT*dT*dG*dT*dT*dG*dT*d[5mC]*k[5mC]*kG*kA; antisense) [compound 772614]” is higher in “% Inhibition” value: 14% for the first, 43% for the second.

Going from “772623 (kA*kG*kT*d[5mC]*d[5mC]*dG*dG*dG*dT*dT*dG*dT*d[5mC]*k[5mC]*kA*kG; antisense) [compound 772623]” to “772635 (kA*kA*kG*d[5mC]*dT*dG*dA*dT*d[5mC]*dT*dG*d[5mC]*dA*k[5mC]*kG*kG; antisense) [compound 772635]”, the “% Inhibition” value rises from 42% to 43%.

In the case of “772687 (kA*k[5mC]*k[5mC]*dT*dT*dT*dG*dT*dA*dG*dT*dT*dA*kG*kA*kA; antisense) [compound 772687]”, the “% Inhibition” value is reported as 46%.
